Test results as given in patent publication US10196393B2, “JAK inhibitors containing a 4-membered heterocyclic amide” (THERAVANCE BIOPHARMA R&D IP, LLC, priority 2017, dated 2019).

Tests used:
JAK2 = JAK2 (Homo sapiens (Human), UniProt O60674); assay: Biochemical JAK kinase assay (LanthaScreen), JAK2; settings: converted from pIC50 with Cheng-Prusoff equation
Method: (§1) Assay 1: Biochemical JAK Kinase Assays
(§2) A panel of four LanthaScreen JAK biochemical assays (JAK1, 2, 3 and Tyk2) were carried in a common kinase reaction buffer (50 mM HEPES, pH 7.5, 0.01% Brij-35, 10 mM MgCl2, and 1 mM EGTA). Recombinant GST-tagged JAK enzymes and a GFP-tagged STAT1 peptide substrate were obtained from Life Technologies.
(§3) Serially diluted compounds were pre-incubated with each of the four JAK enzymes and the substrate in white 384-well microplates (Corning) at ambient temperature for 1 h. ATP was subsequently added to initiate the kinase reactions in 10 μL total volume, with 1% DMSO. […] The plates were allowed to incubate at ambient temperature for 1 h before being read on the EnVision reader (Perkin Elmer).
(§4) For dose-response analysis, percent inhibition data were plotted vs. compound concentrations, and IC50 values were determined from a 4-parameter robust fit model with the Prism software (GraphPad Software). Results were expressed as pIC50 (negative logarithm of IC50) and subsequently converted to pKi (negative logarithm of dissociation constant, Ki) using the Cheng-Prusoff equation.

Tyk2 = Tyk2 (Homo sapiens (Human), UniProt P29597); assay: Biochemical JAK kinase assay (LanthaScreen), Tyk2; settings: converted from pIC50 with Cheng-Prusoff equation
Sequence of Tyk2 (P29597 whole entry): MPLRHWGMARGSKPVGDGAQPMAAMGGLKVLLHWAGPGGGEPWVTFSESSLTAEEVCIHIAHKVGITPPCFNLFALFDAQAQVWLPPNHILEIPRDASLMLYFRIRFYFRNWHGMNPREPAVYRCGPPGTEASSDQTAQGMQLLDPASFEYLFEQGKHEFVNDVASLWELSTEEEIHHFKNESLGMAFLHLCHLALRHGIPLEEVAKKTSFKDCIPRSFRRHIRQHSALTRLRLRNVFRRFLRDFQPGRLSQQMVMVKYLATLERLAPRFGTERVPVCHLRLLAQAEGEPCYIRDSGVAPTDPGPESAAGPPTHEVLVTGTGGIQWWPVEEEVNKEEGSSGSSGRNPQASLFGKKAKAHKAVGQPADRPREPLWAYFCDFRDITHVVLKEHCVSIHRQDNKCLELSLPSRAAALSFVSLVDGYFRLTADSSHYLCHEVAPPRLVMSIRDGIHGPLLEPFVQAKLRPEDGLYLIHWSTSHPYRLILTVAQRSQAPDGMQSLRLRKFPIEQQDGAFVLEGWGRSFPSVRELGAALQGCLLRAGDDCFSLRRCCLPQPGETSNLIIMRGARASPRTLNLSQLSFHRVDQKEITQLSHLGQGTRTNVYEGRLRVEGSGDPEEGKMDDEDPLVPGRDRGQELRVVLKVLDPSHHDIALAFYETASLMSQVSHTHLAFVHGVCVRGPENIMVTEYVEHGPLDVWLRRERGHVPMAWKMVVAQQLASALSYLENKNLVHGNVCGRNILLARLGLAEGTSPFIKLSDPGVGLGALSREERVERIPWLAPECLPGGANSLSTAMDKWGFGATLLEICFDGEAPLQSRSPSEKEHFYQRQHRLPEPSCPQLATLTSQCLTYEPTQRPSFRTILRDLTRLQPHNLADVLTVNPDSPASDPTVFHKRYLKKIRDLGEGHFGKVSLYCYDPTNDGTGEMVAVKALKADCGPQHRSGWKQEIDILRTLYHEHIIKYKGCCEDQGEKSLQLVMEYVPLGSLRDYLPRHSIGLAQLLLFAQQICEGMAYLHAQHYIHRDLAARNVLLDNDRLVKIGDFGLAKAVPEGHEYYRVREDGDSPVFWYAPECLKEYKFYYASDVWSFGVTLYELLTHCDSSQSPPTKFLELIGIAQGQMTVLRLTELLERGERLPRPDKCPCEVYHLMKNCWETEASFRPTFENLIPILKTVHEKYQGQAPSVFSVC
Method: as §1, §2, §3, §4

[1] = system: Alternaria alternata-induced eosinophilic inflammation of the lung (BALF eosinophils); assay: Murine model of Alternaria alternata-induced eosinophilic inflammation of the lung; type: in vivo; settings: mouse, oropharyngeal aspiration 0.03-1.0 mg/mL, BALF 48 h after challenge; maximum statistically significant inhibition
From the text: Assay 5: Murine Model of Alternaria alternata-Induced Eosinophilic Inflammation of the Lung
Airway eosinophilia is a hallmark of human asthma. Alternaria alternata is a fungal aeroallergen that can exacerbate asthma in humans and induces eosinophilic inflammation in the lungs of mice (Havaux et al. Clin Exp Immunol. 2005 February; 139(2):179-88).
Seven- to nine-week old male C57 mice from Taconic were used in the study. On the day of study, animals were lightly anesthetized with isoflurane and administered either vehicle or test compound (0.03-1.0 mg/mL, 50 μL total volume over several breaths) via oropharyngeal aspiration. Animals were placed in lateral recumbency post dose and monitored for full recovery from anesthesia before being returned to their home cage. One hour later, animals were once again briefly anesthetized and challenged with either vehicle or alternaria extract (200 ug total extract delivered, 50 μL total volume) via oropharyngeal aspiration before being monitored for recovery from anesthesia and returned to their home cage. Forty-eight hours after alternaria administration, bronchoalveolar lavage fluid (BALF) was collected and eosinophils were counted in the BALF using the Advia 120 Hematology System (Siemens). […]

[2] = system: IL-2/anti-CD3 stimulated IFNγ in human PBMCs; assay: Cellular JAK potency assay: inhibition of IL-2/anti-CD3 stimulated IFNγ in human PBMCs; type: cell-based; settings: PBMC, 24 h stimulation, read-out: pIC50, inhibition of IL-2/anti-CD3 stimulated IFNγ (converted)
From the text: Data are expressed as pIC50 (negative decadic logarithm IC50) values.

[3] = system: IL-4 stimulated STAT6 phosphorylation in CD3+ T cells; assay: Cellular JAK potency assay: inhibition of IL-4 stimulated pSTAT6 in CD3+ T cells; type: cell-based; settings: T-cell; CD3+ T cells in human PBMCs; read-out: pIC50, inhibition of IL-4 stimulated pSTAT6 (converted)
Method: Assay 10: Cellular JAK Potency Assay: Inhibition of IL-4 Stimulated pSTAT6 in CD3+ T Cells
The potency of the test compound for inhibition of interleukin-4 (IL-4) stimulated STAT6 phosphorylation was measured in CD3-positive (CD3+) T cells in human peripheral blood mononuclear cells (PBMCs) isolated from human whole blood (Stanford Blood Center) using flow cytometry. Because IL-4 signals through JAK, this assay provides a measure of JAK cellular potency.
CD3+ T cells were identified using a […] (PE) conjugated anti-CD3 antibody (Clone UCHT1, BD Biosciences), while an Alexa Fluor 647 conjugated anti-pSTAT6 antibody (pY641, Clone 18/P, BD Biosciences) was used to detect STAT6 phosphorylation.
Human peripheral blood mononuclear cells (PBMC) were isolated from human whole blood of healthy donors as in Assays 8 and 9. […] After incubation, cells were washed twice in FACS buffer before being analyzed using a LSRII flow cytometer (BD Biosciences).
To determine the inhibitory potency of the test compound in response to IL-4, the median fluorescent intensity (MFI) of pSTAT6 was measured in CD3+ T cells. IC50 values were determined from analysis of the inhibition curves of MFI vs compound concentration. Data are expressed as pIC50 (negative decadic logarithm IC50).

Sequence of JAK2 (O60674 whole entry): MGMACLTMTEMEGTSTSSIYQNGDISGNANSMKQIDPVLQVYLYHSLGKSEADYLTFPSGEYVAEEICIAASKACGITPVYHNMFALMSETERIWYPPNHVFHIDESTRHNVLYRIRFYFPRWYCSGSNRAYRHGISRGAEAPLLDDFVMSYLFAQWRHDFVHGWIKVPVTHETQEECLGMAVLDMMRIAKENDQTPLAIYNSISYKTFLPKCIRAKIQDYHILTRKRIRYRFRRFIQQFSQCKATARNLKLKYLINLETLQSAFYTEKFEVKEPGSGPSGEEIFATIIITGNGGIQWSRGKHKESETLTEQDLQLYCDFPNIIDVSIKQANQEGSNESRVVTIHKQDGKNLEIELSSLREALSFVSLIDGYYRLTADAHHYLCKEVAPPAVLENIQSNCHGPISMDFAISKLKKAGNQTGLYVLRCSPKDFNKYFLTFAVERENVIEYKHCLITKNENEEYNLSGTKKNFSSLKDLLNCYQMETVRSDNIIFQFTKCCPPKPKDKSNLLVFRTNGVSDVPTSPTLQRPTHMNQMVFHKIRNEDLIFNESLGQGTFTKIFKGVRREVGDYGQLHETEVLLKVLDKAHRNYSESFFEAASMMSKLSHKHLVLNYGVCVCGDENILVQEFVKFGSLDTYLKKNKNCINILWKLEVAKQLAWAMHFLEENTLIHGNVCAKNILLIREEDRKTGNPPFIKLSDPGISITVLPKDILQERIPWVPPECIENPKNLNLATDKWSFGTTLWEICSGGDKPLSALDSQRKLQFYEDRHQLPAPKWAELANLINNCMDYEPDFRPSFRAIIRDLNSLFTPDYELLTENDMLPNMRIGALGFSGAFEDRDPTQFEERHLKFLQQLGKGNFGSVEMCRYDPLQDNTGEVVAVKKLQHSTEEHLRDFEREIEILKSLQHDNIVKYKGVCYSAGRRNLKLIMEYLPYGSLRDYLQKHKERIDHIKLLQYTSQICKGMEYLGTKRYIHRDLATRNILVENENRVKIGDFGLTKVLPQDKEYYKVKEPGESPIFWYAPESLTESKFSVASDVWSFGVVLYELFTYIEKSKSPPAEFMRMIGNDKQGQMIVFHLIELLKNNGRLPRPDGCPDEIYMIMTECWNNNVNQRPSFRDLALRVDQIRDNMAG

Q: `CCc1cc(O)c(F)cc1-c1ccc2c(-c3nc4c([nH]3)CN(C(C)C)[C@H](C(=O)N3CC(N(C)C)C3)C4)n[nH]c2c1` [Example 2, (S)-(3-(dimethylamino)azetidin-1-yl)(2-(6-(2-ethyl-5-fluoro-4-hydroxyphenyl)-1H-indazol-3-yl)-5-isopropyl-4,5,6,7-tetrahydro-3H-imidazo[4,5-c]pyridin-6-yl)methanone] was tested. Which Ki (JAK2) did it give?
A: 0.02 nM

Q: And the Ki (Tyk2)?
A: 0.32 nM

Q: And the “Percent Inhibition of Alternaria-induced BALF Eosinophils” value [1]?
A: 74%

Q: What about the IC50 [2] of the same compound?
A: ~79.4 nM

Q: What about the IC50 [3] of the same compound?
A: 12.6 nM
